From patent US20210267948A1, “TREATMENT OF CANCER” (CITY OF HOPE, priority 2017, published 2021) come the findings set out here.

The term IC50 denotes the concentration at which inhibition is half-maximal.

The test system of one experiment is PARP1. In words: PARP1 protein expression by Western blot. It is filed as cell-based, human. How it is done: FIGS. 3A-3B. […] (FIG. 3A): the effect of COH29 on PARP1 activity in isogenic pairs of breast (HCC1937) and ovarian (UWB1.289) cancer cell lines expressing mutant or wt BRCA1 (wt=+BRCA1 in each case) was assessed in duplicate using procedures described in Materials & Methods; FIG. 3B: the effect of COH29 on PARP1 protein expression in the isogenic HCC1937/HCC1937+BRCA1 cell lines was assessed by Western blot analysis using anti-human PARP1 antibody as the primary antibody. Loading control is β-actin.
For subcellular fractionation, cells were trypsinized and washed with cold PBS solution twice. […] Following centrifugation at 1,000 g for 5 min, the supernatant was collected (i.e., cytoplasmic fraction) and pellets were washed with the same buffer twice. The washed samples were extracted for 40 min on ice with fractionation buffer containing 0.5% NP-40 for nuclear fraction. All the samples were sonicated and clarified by centrifugation at 16,000 g for 15 min. Protein concentrations of all fractions were determined with Bio-Rad Protein Assay (Bio-Rad Laboratories, Hercules, Calif.). Immunoblotting was performed as described previously (21,22). Briefly, equal amounts of boiled protein samples were subjected to SDS-polyacrylamide gel electrophoresis (PAGE) and transferred onto nitrocellulose membranes (Bio-Rad Laboratories). Membranes were blocked for 1 hour in 3% BSA in Tris buffered saline containing 0.05% Tween 20 (TBST) and incubated for 1 hour with primary antibody (1:500 or 1:1000) diluted in TBST containing 1% BSA. After two washes with TBST, membranes were incubated for 1 hour with horseradish peroxidase-conjugated secondary Abs (1:3000 dilution) at room temperature. The immunoblots were visualized on film with the West-Q chemi-luminescence kit (GenDEPOT, Barker, Tex.).
For orientation: Immunoblotting shows a protein as a band on a membrane.

Experiment [1] has as its system multiple human cancer cell lines. In words: In vitro activity in multiple human cancer cell lines. The format is cell-based. Conditions: in most cases.
Another experiment has as its system MCF-7 p53−/−. Kind of experiment: DNA damage checkpoint Western blot, MCF-7 p53-/-. It is filed as cell-based, human. How it is done:
FIG. 6. COH29 treatment activates DNA damage checkpoint. The effect of COH29 treatment on DNA damage checkpoint proteins in human breast cancer cells expressing wt p53 (MCF-7) or defective for p53 (MCF-7p53−/−), and in triple-negative breast cancer cells (MDA-MB-468) assessed by Western Blot.
For subcellular fractionation, cells were trypsinized and washed with cold PBS solution twice. After centrifugation at 1,200 g for 5 min, cells were incubated in buffer (50 mM HEPES, pH 7.5, 150 mM NaCl, 1 mM EDTA) containing 0.2% NONIDET™ P-40 (NP-40), supplemented with protease inhibitors (5 μg/ml each of pepstatin, leupeptin, and aprotinin) and phosphatase inhibitors on ice for 5 min. Following centrifugation at 1,000 g for 5 min, the supernatant was collected (i.e., cytoplasmic fraction) and pellets were washed with the same buffer twice. The washed samples were extracted for 40 min on ice with fractionation buffer containing 0.5% NP-40 for nuclear fraction. All the samples were sonicated and clarified by centrifugation at 16,000 g for 15 min. Protein concentrations of all fractions were determined with Bio-Rad Protein Assay (Bio-Rad Laboratories, Hercules, Calif.). Immunoblotting was performed as described previously (21,22). […] The immunoblots were visualized on film with the West-Q chemi-luminescence kit (GenDEPOT, Barker, Tex.).

Experiment [2] has as its system human cancer cells resistant to gemcitabine, hydroxyurea or cisplatin. Kind of experiment: Growth of drug-resistant human cancer cells. It is filed as cell-based. The note with it: KB-Gem, KBHURs and others, 72 h. How it is done: FIGS. 11A-11B depict the activity of COH29 in gemcitabine (KB-Gem) (FIG. 11A) and hydroxyurea (KBHURs) (FIG. 11B) resistant cell lines in 72 h toxicity assay. Hydroxyurea (concentration 2-50 mmol/L), gemcitabine (concentration 20-500 μmon), and COH29 (concentration 2-250 μmon) were used for real-time growth curves for KBHUR and gemcitabine, respectively, based on comparison of 72-h viability of hydroxyurea-resistant or gemcitabine-resistant cells to COH29.

The test system of the next experiment is MOLT-4 xenograft tumors. In words: MOLT-4 mouse xenograft. The format is in vivo. Conditions: MOLT-4, oral twice daily 50 and 100 mg/kg, 12 days. How it is done: FIGS. 12A-12D depict the activity of COH29 in mouse xenografts. Cancer cells were implanted and allowed to grow at the subcutaneous site until the tumor was measurable. Subcutaneous xenograft growth curves for leukemic-(MOLT-4) mice treated for 12 days with oral COH29 in twice-daily dosing at 50 and 100 mg/kg (FIG. 12A) and for ovarian cancer bearing mice (TOV112D) treated for 7 days with 200, 300, or 400 mg/kg of oral COH29 (FIG. 12B) (shown are the average±SDs for 4 animals/group). FIG. 12C depicts the activity of RNR in MOLT-4 tumor xenografts from mice treated with vehicle (solutol-15) or 100 mg/kg of oral COH29 for 12 days. FIG. 12D depicts the effect of oral COH29 on intratumoral dTNP pools from MOLT-4 tumor xenografts.

For the compound `O=C(Nc1nc(-c2ccc(O)c(O)c2)c(-c2ccccc2)s1)c1ccc(O)c(O)c1` [COH29, N-(4-(3,4-dihydroxyphenyl)-5-phenylthiazol-2-yl)-3,4-dihydroxybenzamide], in the experiment on PARP1 (HCC1937 BRCA1-defective, 24 h), the PARP1 protein level entry is “attenuated PARP1 protein”. In the experiment with PARP1 (HCC1937 cells irrespective of BRCA1 status, 4 h), the PARP1 protein level entry was “Little reduction”. Besides, the 50% inhibitory concentration (IC50) in experiment [1] was less than 10 µM. Besides, in the experiment with MCF-7 p53−/−, the “DNA damage checkpoint proteins (ATM, CHK1, CHK2)” value is on record as “similarly modified” and the γ-H2AX level entry is given as “increase”. The “growth of resistant cancer cells” value in experiment [2] was “suppresses the growth”. For the same compound, the xenograft tumor growth entry in the experiment with MOLT-4 xenograft tumors is recorded as “inhibited”.
